Assay results taken from patent US6703424B2, “Dispersible compositions containing L-DOPA ethyl ester” (Teva Pharmaceutical Industries, Ltgd., priority 1998, dated 2004).

Tests used:
Type in all cases: physicochemical
[1] = Dissolution test for L-DOPA ethyl ester/carbidopa dispersible tablets in water (USP dissolution apparatus, HPLC-UV); conditions: 100 ml purified water, room temperature, paddles 200 rpm
Method: The dissolution of L-DOPA ethyl ester and carbidopa dispersible tablets was measured in water at room temperature according to the following methodology which was designed to simulate the administration of these tablets to patients. The recommended use is to place a tablet (384 mg) for a few seconds in about 100 mls of water, and to dissolve while swirling or stirring. The suspension should be drunk within 30 minutes. In order to automate the measurement, a USP 6-Pot Dissolution Apparatus is used. Each of 6 tablets are dissolved in 100 ml of purified water in a 200 ml vessel at room temperature (23±2° C.). This is the minimum volume which may be used with the USP Dissolution Apparatus. The solutions are stirred with paddles rotating at 200 rpm, which simulates the turbulence caused when the solution is stirred in a cup, with a teaspoon. […] In this experiment specifically, the amount of L-DOPA ethyl ester or carbidopa is determined by using a 10 cm C18 column, based on 3 μ-diameter spherical silica particles with 100 Å pore size. The elution solvents comprise a gradient of acetonitrile and phosphate buffer with ion-pairing reagent (at pH 2.7). The detection technique is ultraviolet absorption at 280 nm, the wavelength of maximum absorption for both L-DOPA ethyl ester and Carbidopa.

[2] = L-DOPA ethyl ester degradation in solution and tablets, measured as level of L-DOPA over six months; conditions: oral solution acidified with HCl
Method: A comparison of L-DOPA ethyl ester (LDEE) degradation in LDEE oral solution (4° C.), and in two environmental conditions of LDEE and Carbidopa dispersible tablets (at 25° C./60% RH and at 40° C./75% RH), was performed by measuring the change in levels of L-DOPA in samples over a six month period of time. L-DOPA is the main degradation product of L-DOPA ethyl ester. Elevation in the level of L-DOPA indicates degradation of LDEE.
The change in the level of L-DOPA with time, expressed as percent of the concentration of LDEE in the sample, was determined in LDEE and Carbidopa Dispersible Tablets (Formulation V, packed in aluminum blisters) and in LDEE oral solution (packed in PET bottles). The composition of the solution was (per 1 ml): 57.1 mg LDEE, 1.2 mg Methylparaben, 1.6 mg Saccharin sodium, 0.1 mg Edetate disodium and cherry flavor. The solution was acidified with HCl to pH 4.0, in which the stability of LDEE is maximal. The solution was kept in refrigeration (4° C.) while the tablets were kept at room conditions (25° C. and 60% relative humidity) or in accelerated stability conditions (40° C. and 75% relative humidity). The results are shown below in Table 4 and in FIG. 4: […]

[3] = Stability of L-DOPA ethyl ester composition on incubation at 40° C.; conditions: after incubation for 6 months at 40° C.

| Percentage of Dissolution ([1]; 1 minute) | Percentage of Dissolution ([1]; 2 minutes) | Percentage of Dissolution ([1]; 5 minutes) | pH at which the stability of LDEE is maximal [2] | Compound | L-DOPA ethyl ester content remaining [3] |
| --- | --- | --- | --- | --- | --- |
| 64.3% | 87.6% | 101.4% |  | C[C@@](Cc1ccc(O)c(O)c1)(NN)C(=O)O [Carbidopa, reference compound] |  |
| 67.2% | 90.1% | 102.7% | 4.0 | CCOC(=O)[C@@H](N)Cc1ccc(O)c(O)c1 [L-DOPA Ethyl Ester, L-DOPA ethyl ester] | at least 97 % by weight of the active ingredient |
